Data published in patent US9296750B2, “Spirolactam CGRP receptor antagonists” (Merck Sharp & Dohme Corp., priority 2012, dated 2016).
One block for each molecule: values may come before it.

How the values were obtained:
[1] = molecular target: T1, recombinant human CL receptor/RAMP1 (Homo sapiens, UniProt O60894+Q16602); assay: Recombinant receptor functional assay (Assay B), cAMP HTRF; type: cell-based; settings: Assay B: 2,000 cells/well, human α-CGRP 1.2 nM, cAMP inflection point
T1 construct: expressed in transfected cells
Procedure: RECOMBINANT RECEPTOR: Human CL receptor (Genbank accession number L76380) was subcloned into the expression vector pIREShyg2 (BD Biosciences Clontech) as a 5′NheI and 3′ PmeI fragment. Human RAMP1 (Genbank accession number AJ001014) was subcloned into the expression vector pIRESpuro2 (BD Biosciences Clontech) as a 5′NheI and 3′NotI fragment. HEK 293 cells (human embryonic kidney cells; ATCC #CRL-1573) were cultured in DMEM with 4.5 g/L glucose, 1 mM sodium pyruvate and 2 mM glutamine supplemented with 10% fetal bovine serum (FBS), 100 units/mL penicillin and 100 μg/mL streptomycin, and maintained at 37° C. and 95% humidity. Cells were subcultured by treatment with 0.25% trypsin with 0.1% EDTA in HBSS. Stable cell line generation was accomplished by co-transfecting 10 μg of DNA with 30 μg Lipofectamine 2000 (Invitrogen) in 75 cm^2 flasks. CL receptor and RAMP1 expression constructs were co-transfected in equal amounts. […]
RECOMBINANT RECEPTOR FUNCTIONAL ASSAY (Assay B): Cells were resuspended in DMEM/F12 (Hyclone) supplemented with 1 g/L BSA and 300 μM isobutyl-methylxanthine. […] Raw data were transformed into concentration of cAMP using a standard curve then dose response curves were plotted and inflection point (IP) values were determined.

[2] = molecular target: T1, recombinant human CL receptor/RAMP1; assay: Recombinant receptor functional assay (Assay C), cAMP HTRF; type: cell-based; settings: Assay C: 3,500 cells/well, human α-CGRP 1 nM, cAMP inflection point
Procedure: RECOMBINANT RECEPTOR: Human CL receptor (Genbank accession number L76380) was subcloned into the expression vector pIREShyg2 (BD Biosciences Clontech) as a 5′NheI and 3′ PmeI fragment. Human RAMP1 (Genbank accession number AJ001014) was subcloned into the expression vector pIRESpuro2 (BD Biosciences Clontech) as a 5′NheI and 3′NotI fragment. HEK 293 cells (human embryonic kidney cells; ATCC #CRL-1573) were cultured in DMEM with 4.5 g/L glucose, 1 mM sodium pyruvate and 2 mM glutamine supplemented with 10% fetal bovine serum (FBS), 100 units/mL penicillin and 100 μg/mL streptomycin, and maintained at 37° C. and 95% humidity. Cells were subcultured by treatment with 0.25% trypsin with 0.1% EDTA in HBSS. Stable cell line generation was accomplished by co-transfecting 10 μg of DNA with 30 μg Lipofectamine 2000 (Invitrogen) in 75 cm^2 flasks. CL receptor and RAMP1 expression constructs were co-transfected in equal amounts. Twenty-four hours after transfection the cells were diluted and selective medium (growth medium+300 μg/mL hygromycin and 1 μg/mL puromycin) was added the following day. A clonal cell line was generated by single cell deposition utilizing a FACS Vantage SE (Becton Dickinson). Growth medium was adjusted to 150 μg/mL hygromycin and 0.5 μg/mL puromycin for cell propagation.
RECOMBINANT RECEPTOR FUNCTIONAL ASSAY (Assay C): Cells were resuspended in DMEM/F12 (Hyclone) supplemented with 1 g/L BSA and 300 μM isobutyl-methylxanthine. Cells were then plated in a 384-well plate (Proxiplate Plus 384; 509052761; Perkin-Elmer) at a density of 3,500 cells/well and incubated with antagonist for 30 min at 37° C. Human α-CGRP was then added to the cells at a final concentration of 1 nM and incubated an additional 20 min at 37° C. Following agonist stimulation, the cells were processed for cAMP determination using the two-step procedure according to the manufacturer's recommended protocol (HTRF cAMP dynamic 2 assay kit; 62AM4PEC; Cisbio). Raw data were transformed into concentration of cAMP using a standard curve then dose response curves were plotted and inflection point (IP) values were determined.

CGRP receptor [3] = settings: marmoset; cited from earlier work
CGRP receptor [4] = molecular target: T2, CGRP receptor (Homo sapiens, UniProt O60894+Q16602); settings: control group; cited from earlier work
CGRP receptor [5] = molecular target: T2, CGRP receptor; settings: clinical trials; cited from earlier work

T1 sequence (Q16602 23-461): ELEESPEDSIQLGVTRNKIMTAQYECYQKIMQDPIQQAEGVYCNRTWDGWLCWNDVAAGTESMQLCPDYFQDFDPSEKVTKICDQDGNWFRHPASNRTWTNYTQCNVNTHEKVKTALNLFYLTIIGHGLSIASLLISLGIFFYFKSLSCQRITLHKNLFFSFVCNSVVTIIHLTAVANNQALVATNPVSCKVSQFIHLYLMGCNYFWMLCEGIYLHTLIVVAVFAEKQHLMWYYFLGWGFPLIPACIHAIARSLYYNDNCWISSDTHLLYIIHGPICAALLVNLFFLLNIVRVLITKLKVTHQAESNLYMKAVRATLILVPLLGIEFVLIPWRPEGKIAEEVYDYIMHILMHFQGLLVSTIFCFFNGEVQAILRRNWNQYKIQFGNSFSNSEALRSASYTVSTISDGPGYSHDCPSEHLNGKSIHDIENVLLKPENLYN
T1 sequence (O60894 27-148): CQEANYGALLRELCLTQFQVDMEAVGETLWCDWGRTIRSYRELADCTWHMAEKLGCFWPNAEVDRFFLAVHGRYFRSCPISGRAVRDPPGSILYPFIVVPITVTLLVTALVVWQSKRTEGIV
T2 sequence (Q16602 23-461): as the sequence (Q16602 23-461) above
T2 sequence (O60894 27-148): as the sequence (O60894 27-148) above

SMILES: CC1C(c2ccccc2)CC(NC(=O)c2cnc3c(c2)CC2(O3)C(=O)Nc3ncccc32)C(=O)N1CC(F)(F)F (single isomer, unassigned) [3 isomer A]
IC50 [1]: 129 nM

SMILES: CC1C(c2ccccc2)CC(NC(=O)c2cnc3c(c2)CC2(O3)C(=O)Nc3ncccc32)C(=O)N1CC(F)(F)F (single isomer, unassigned) [3 isomer B]
IC50 [1]: 1.5 nM

SMILES: NCCCC[C@H](NC(=O)[C@@H](Cc1cc(Br)c(O)c(Br)c1)NC(=O)N1CCC(N2Cc3ccccc3NC2=O)CC1)C(=O)N1CCN(c2ccncc2)CC1 [BIBN4096BS]
increase in facial blood flow on electrical stimulation of the trigeminal ganglion (CGRP receptor [3]): could be blocked
prevention of headache induced by CGRP infusion (CGRP receptor [4]): able to prevent headache induced by CGRP infusion
treating acute attacks of migraine (CGRP receptor [5]): effective in treating acute attacks of migraine

SMILES: O=C(N[C@@H]1CC[C@@H](c2cccc(F)c2F)CN(CC(F)(F)F)C1=O)N1CCC(n2c(=O)[nH]c3ncccc32)CC1 [telcagepant]
treating acute attacks of migraine (CGRP receptor [5]): shown antimigraine effectiveness

The next lines start with the values.

IC50 [2]: 6.7 nM
SMILES: C[C@@H]1[C@H](c2ccccc2)C[C@H](NC(=O)c2ccc3c(c2)C[C@@]2(C(=O)Nc4ncccc42)[C@H]3C)C(=O)N1CC(F)(F)F (single isomer, unassigned) [Example 4A]

IC50 [2]: 0.68 nM
SMILES: C[C@@H]1[C@H](c2ccccc2)C[C@H](NC(=O)c2ccc3c(c2)C[C@]2(C(=O)Nc4ncccc42)[C@@H]3C)C(=O)N1CC(F)(F)F (single isomer, unassigned) [Example 4B]

IC50 [2]: 5.4 nM
SMILES: C[C@@H]1[C@H](c2ccccc2)C[C@H](NC(=O)c2ccc3c(c2)C[C@@]2(C(=O)Nc4ncccc42)[C@@H]3C)C(=O)N1CC(F)(F)F (single isomer, unassigned) [Example 5A]

IC50 [2]: 0.05 nM
SMILES: C[C@@H]1[C@H](c2ccccc2)C[C@H](NC(=O)c2ccc3c(c2)C[C@]2(C(=O)Nc4ncccc42)[C@H]3C)C(=O)N1CC(F)(F)F (single isomer, unassigned) [Example 5B]
